As usually defined, the ΔTm is the change in melting temperature against a reference sample.

Our source for the ΔTm values is PMC12728205, “The solute-binding proteins DppA1–5 of Pseudomonas aeruginosa have distinct substrate profiles” (Scientific Reports, 2025).

In the assay the target is T1, DppA1 (Pseudomonas aeruginosa, UniProt A0A0H2ZGV2).
T1 construct: C-terminal TwinStrepTag, codon-optimized gene, periplasmic expression in E. coli BL21 (pET22b), StrepTrap purified
Description: differential scanning fluorimetry (SYPRO Orange). Particulars: 10 µM protein, 250 µM peptide, PBS. The class given is binding.

Peptide text beside a SMILES is read from it.

T1 sequence (A0A0H2ZGV2 30-537): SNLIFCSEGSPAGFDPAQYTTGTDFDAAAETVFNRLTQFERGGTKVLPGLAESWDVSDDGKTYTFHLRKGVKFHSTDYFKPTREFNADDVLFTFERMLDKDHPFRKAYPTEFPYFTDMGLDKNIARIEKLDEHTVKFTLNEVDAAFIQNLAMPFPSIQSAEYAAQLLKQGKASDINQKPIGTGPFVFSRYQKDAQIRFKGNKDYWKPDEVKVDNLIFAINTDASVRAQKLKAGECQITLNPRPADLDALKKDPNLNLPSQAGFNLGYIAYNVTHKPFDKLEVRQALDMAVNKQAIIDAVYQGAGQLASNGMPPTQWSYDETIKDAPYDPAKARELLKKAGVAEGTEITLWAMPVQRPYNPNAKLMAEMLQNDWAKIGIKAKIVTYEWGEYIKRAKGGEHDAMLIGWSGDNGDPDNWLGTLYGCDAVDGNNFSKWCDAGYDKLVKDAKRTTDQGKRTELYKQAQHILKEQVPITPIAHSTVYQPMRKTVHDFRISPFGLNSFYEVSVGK

Take `C[C@H](N)C(=O)NCC(=O)O` [Ala-Gly] (H-Ala-Gly-OH): the shift in melting temperature (ΔTm) is 8.6 °C.
